Holding throughout (assay): Intracellular EGFR phosphorylation, mutant EGFR forced expression system using HEK293 cells
Holding throughout (assay type): cell-based
Conditions in all cases: 6 hours incubation, p-EGFR (Tyr1068)/EGFR

Test [1] deals with T1, human EGFR L858R+T790M+L718Q (Homo sapiens, UniProt P00533, L718Q/L858R/T790M).
T1 construct: expressed in transfected cells; host or cells: Jump-In Grip HEK293 cells (Thermo Fisher Scientific)

The target of test [2] is T2, human EGFR Ex19del+T790M+L792H (Homo sapiens, UniProt P00533, DEL746-750/L792H/T790M).
T2 construct: expressed in transfected cells; host or cells: Jump-In Grip HEK293 cells (Thermo Fisher Scientific)
T2 sequence (P00533 with tags, fused parts or gaps DEL746-750/T790M/L792H): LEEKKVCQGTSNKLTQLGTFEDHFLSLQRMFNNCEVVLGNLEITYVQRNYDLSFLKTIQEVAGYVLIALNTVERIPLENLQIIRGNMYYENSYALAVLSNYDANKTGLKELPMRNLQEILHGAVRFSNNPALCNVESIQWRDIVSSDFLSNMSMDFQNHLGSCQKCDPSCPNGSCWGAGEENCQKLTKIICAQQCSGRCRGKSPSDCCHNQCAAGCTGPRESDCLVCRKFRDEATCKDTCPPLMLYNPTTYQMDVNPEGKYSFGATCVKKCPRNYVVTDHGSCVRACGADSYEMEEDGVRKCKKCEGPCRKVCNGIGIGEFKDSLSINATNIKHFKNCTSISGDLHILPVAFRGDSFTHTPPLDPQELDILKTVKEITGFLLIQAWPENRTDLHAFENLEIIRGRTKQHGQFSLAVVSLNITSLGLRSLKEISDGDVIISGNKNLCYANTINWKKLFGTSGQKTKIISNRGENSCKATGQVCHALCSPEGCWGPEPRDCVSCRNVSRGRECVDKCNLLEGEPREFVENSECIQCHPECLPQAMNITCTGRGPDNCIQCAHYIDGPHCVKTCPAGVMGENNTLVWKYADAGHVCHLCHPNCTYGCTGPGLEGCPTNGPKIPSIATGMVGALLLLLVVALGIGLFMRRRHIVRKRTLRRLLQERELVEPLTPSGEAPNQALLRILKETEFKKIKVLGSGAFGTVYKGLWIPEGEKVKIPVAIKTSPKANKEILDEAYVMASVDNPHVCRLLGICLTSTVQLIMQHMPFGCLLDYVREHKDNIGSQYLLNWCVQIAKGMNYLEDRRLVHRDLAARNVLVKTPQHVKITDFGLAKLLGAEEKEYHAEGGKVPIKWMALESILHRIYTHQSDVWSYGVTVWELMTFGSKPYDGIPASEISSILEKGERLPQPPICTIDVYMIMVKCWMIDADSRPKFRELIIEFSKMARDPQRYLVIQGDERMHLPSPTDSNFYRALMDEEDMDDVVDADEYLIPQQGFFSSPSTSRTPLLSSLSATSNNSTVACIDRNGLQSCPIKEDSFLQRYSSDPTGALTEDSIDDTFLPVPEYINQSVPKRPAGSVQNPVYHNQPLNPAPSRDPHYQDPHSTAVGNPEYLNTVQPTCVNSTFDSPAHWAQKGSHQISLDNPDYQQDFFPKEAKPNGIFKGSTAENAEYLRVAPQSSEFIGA

Test [3] deals with T3, human EGFR L858R+T790M+L792Y (Homo sapiens, UniProt P00533, L792Y/L858R/T790M).
T3 construct: expressed in transfected cells; host or cells: Jump-In Grip HEK293 cells (Thermo Fisher Scientific)

In test [4] the target is T4, human EGFR Ex19del+T790M+L792Y (Homo sapiens, UniProt P00533, DEL746-750/L792Y/T790M).
T4 construct: expressed in transfected cells; host or cells: Jump-In Grip HEK293 cells (Thermo Fisher Scientific)

For test [5], the target named is T5, human EGFR L858R+T790M+L792H (Homo sapiens, UniProt P00533, L792H/L858R/T790M).
T5 construct: expressed in transfected cells; host or cells: Jump-In Grip HEK293 cells (Thermo Fisher Scientific)

Test [6] deals with T6, human EGFR Ex19del (Del E746-A750) (Homo sapiens, UniProt P00533, DEL746-750).
T6 construct: expressed in transfected cells; host or cells: Jump-In Grip HEK293 cells (Thermo Fisher Scientific)

Test [7] addresses T7, human EGFR L858R+T790M+L792F (Homo sapiens, UniProt P00533, L792F/L858R/T790M).
T7 construct: expressed in transfected cells; host or cells: Jump-In Grip HEK293 cells (Thermo Fisher Scientific)

In test [8] the target is T8, human EGFR Ex19del+T790M (Homo sapiens, UniProt P00533, DEL746-750/T790M).
T8 construct: expressed in transfected cells; host or cells: Jump-In Grip HEK293 cells (Thermo Fisher Scientific)
T8 sequence (P00533 with tags, fused parts or gaps DEL746-750/T790M): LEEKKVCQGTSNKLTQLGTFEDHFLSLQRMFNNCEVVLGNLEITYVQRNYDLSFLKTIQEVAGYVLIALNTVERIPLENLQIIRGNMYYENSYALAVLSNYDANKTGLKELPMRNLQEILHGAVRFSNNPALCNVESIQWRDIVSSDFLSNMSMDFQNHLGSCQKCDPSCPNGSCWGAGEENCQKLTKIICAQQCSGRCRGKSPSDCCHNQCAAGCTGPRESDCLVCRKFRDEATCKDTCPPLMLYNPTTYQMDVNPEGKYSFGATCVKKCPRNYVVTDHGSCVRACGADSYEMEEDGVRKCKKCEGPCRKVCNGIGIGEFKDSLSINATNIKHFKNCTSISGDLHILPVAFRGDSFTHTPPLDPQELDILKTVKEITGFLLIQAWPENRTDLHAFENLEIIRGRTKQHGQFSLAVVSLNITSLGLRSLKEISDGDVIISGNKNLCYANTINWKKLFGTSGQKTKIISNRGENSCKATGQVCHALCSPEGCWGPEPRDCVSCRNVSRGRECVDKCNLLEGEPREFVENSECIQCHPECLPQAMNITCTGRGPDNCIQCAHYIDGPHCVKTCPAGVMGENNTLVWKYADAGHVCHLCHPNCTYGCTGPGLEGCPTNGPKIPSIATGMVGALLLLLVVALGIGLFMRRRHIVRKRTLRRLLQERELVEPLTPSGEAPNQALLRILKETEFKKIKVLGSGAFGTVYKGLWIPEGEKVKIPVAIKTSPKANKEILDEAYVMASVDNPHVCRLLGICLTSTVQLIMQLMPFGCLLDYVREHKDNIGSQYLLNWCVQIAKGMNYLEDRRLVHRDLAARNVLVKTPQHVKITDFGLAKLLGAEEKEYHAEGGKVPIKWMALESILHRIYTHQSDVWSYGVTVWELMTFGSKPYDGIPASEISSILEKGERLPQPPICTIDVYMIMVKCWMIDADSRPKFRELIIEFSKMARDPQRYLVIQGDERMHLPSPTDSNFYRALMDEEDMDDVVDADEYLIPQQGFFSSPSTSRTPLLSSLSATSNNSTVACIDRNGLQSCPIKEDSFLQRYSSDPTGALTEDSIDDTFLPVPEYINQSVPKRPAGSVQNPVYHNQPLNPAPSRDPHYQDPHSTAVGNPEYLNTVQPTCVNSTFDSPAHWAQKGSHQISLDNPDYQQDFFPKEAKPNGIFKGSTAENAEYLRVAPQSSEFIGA

Test [9] addresses T9, human EGFR L858R+T790M (Homo sapiens, UniProt P00533, L858R/T790M).
T9 construct: expressed in transfected cells; host or cells: Jump-In Grip HEK293 cells (Thermo Fisher Scientific)

In test [10] the target is T10, human EGFR Ex19del+T790M+L792F (Homo sapiens, UniProt P00533, DEL746-750/L792F/T790M).
T10 construct: expressed in transfected cells; host or cells: Jump-In Grip HEK293 cells (Thermo Fisher Scientific)

Test [11] concerns the target T11, human EGFR L858R (Homo sapiens, UniProt P00533, L858R).
T11 construct: expressed in transfected cells; host or cells: Jump-In Grip HEK293 cells (Thermo Fisher Scientific)

Test [12] deals with T12, human EGFR Ex19del+T790M+L718Q (Homo sapiens, UniProt P00533, DEL746-750/L718Q/T790M).
T12 construct: expressed in transfected cells; host or cells: Jump-In Grip HEK293 cells (Thermo Fisher Scientific)

Results on 1 compound are retold here after patent US12661356B2, “L718 and/or L792 mutant treatment-resistant EGFR inhibitor” (TAIHO PHARMACEUTICAL CO., LTD., priority 2018, dated 2026).

Each structure is given as a SMILES string.

As a reminder, the IC50 is the concentration needed to halve the response being measured. Low values mean greater potency in that assay, high ones weaker potency in that assay.

T11 sequence (P00533 25-1210 L858R): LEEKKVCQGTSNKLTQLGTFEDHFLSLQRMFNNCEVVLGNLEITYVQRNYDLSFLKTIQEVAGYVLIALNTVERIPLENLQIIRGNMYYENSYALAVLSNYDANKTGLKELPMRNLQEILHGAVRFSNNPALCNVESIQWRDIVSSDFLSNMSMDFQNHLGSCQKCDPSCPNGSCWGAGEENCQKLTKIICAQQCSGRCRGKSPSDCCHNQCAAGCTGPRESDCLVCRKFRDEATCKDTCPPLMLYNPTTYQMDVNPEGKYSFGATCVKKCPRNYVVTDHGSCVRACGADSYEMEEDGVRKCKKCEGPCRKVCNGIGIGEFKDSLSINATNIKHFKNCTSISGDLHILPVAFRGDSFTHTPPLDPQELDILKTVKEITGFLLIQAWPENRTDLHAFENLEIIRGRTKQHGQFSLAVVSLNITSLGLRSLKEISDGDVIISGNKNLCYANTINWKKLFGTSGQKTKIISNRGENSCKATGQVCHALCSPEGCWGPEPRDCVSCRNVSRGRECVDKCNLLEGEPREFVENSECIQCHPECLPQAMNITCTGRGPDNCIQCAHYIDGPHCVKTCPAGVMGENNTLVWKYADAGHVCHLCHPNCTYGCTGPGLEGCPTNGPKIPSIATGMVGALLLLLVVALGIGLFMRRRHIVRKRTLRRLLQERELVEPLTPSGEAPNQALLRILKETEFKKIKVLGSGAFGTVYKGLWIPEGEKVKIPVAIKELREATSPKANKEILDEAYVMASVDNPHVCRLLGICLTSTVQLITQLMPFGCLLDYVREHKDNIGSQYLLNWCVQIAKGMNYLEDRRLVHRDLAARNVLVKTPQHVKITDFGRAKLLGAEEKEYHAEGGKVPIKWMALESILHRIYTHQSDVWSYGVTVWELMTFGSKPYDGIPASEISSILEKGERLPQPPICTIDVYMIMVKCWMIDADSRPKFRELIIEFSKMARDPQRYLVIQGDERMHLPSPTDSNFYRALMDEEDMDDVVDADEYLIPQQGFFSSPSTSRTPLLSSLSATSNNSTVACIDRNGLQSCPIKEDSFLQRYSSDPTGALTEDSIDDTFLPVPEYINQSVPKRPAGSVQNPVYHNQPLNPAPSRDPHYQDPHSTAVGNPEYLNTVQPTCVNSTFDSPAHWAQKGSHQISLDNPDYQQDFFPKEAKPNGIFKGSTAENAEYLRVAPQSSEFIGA
T7 sequence (P00533 25-1210 T790M/L792F/L858R): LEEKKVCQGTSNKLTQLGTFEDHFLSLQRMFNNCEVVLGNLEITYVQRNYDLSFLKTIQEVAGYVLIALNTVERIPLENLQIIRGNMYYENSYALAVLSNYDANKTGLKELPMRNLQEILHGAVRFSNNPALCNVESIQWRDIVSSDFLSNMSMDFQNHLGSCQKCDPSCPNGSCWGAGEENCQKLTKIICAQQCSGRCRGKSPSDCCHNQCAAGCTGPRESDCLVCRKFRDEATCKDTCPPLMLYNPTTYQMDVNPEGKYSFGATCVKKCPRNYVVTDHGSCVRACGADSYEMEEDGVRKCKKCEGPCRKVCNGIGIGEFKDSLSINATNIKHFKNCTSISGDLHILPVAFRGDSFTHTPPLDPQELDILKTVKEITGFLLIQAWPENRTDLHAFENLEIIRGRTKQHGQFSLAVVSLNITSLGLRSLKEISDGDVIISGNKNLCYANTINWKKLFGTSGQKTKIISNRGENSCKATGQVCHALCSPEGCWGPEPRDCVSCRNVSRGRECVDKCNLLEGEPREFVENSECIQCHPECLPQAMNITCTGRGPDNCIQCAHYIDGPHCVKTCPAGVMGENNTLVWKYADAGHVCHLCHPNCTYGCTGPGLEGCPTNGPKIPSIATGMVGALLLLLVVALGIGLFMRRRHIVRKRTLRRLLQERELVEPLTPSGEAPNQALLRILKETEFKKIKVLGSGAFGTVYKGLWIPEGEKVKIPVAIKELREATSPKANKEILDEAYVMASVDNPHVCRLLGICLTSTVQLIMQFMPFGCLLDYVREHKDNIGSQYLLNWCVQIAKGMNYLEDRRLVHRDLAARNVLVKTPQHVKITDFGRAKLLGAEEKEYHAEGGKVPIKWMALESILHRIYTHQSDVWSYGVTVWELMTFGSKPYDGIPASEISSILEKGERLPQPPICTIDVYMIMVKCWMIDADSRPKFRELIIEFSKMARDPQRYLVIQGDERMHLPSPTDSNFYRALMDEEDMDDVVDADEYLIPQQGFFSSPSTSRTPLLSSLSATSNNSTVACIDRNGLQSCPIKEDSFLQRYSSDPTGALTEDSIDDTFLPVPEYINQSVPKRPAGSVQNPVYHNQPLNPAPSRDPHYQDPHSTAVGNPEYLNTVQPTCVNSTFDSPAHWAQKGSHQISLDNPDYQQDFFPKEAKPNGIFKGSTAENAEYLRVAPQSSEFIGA

Turning to `C=CC(=O)N[C@H]1C=C(C)c2c(-c3cnc4ccccc4c3)c3c(N)ncnc3n2C1` [Compound A, (S)—N-(4-amino-6-methyl-5-(quinolin-3-yl)-8,9-dihydropyrimido[5,4-b]indolizin-8-yl) acrylamide], the IC50 in test [1] was 104 ± 40 µM; in [2], 11.1 ± 5.6 µM; in [3], 11.3 ± 5.8 µM; in test [4], 6.54 ± 1.49 µM; in test [5], 15.3 ± 5 µM; in test [6], 11.2 ± 6.4 µM. Besides, the half-inhibitory concentration (IC50) in [7] came out at 9.07 ± 4.74 µM; in [8], 16.9 ± 5.9 µM; in test [9], 16 ± 2.6 µM; in test [10] it was 6.25 ± 1.83 µM; in test [11], 13.8 ± 3.8 µM; in test [12], 82.5 ± 9 µM.
